This passage reports Activity and Stability results from ChEMBL document CHEMBL1143806, “Synthesis and biological evaluation of the suberoylanilide hydroxamic acid (SAHA) beta-glucuronide and beta-galactoside for application in selective prodrug chemotherapy” (Bioorg Med Chem Lett, 2007).

The source made the active and inactive calls. The calls are words filed in the database; no cut-off is given here.

The test system of one series is NCI-H661. Description: Antiproliferative activity against human H661 cells at 1 to 25 uM after 48 hrs. It is filed as functional, cell-based.
Series [1] can be described thus: Stability in presence of 100 U/mL Escherichia coli beta-glucuronidase assessed as SAHA production after 30 mins. It is filed as ADME. Particulars: 0.5 h.
The nature of series [2]: Stability in presence of 100 U/mL Escherichia coli beta-glucuronidase assessed as SAHA production after 7 mins. The format is ADME.
Series [3] can be described thus: Stability in presence of 200 to 1000 U/mL bovine liver beta-glucuronisase assessed as SAHA production at 100 ug/mL. The format is ADME. Particulars: cattle.

As to `O=C(CCCCCCC(=O)Nc1ccccc1)NO[C@@H]1O[C@H](CO)[C@H](O)[C@H](O)[C@H]1O`, the outcome in the series on NCI-H661 was inactive.

For the compound `O=C(CCCCCCC(=O)Nc1ccccc1)NO[C@@H]1O[C@H](C(=O)O)[C@@H](O)[C@H](O)[C@H]1O`, in the series with NCI-H661, the outcome was inactive. The Stability entry in series [1], in series [2] and in series [3] was “Stable” each time.
